Like-named read-outs stand apart in the source and are kept apart here.
How the values were obtained:
GAS5 lncRNA = assay: γ-AApeptide OBOC combinatorial library screen with fluorescein tagged GAS5 oligonucleotide, hits validated in vitro; format: binding; conditions: fluorescein tagged GAS5 oligonucleotide probe, tRNA as control
From the text: The interaction between UPF1 and GAS5 was disrupted using a γ-AApeptide based one-bead-one-compound (OBOC) combinatorial library (Wu H, Li Y, Bai G, Niu Y, Qiao Q, Tipton J D, Cao C, Cai J. gamma-AApeptide-based small-molecule ligands that inhibit Abeta aggregation. Chemical communications. 2014; 50(40):5206-8. doi: 10.1039/c3cc46685j. PubMed PMID: 24158240). The γ-AApeptide is a peptidomimetic with side chains for chemical diversity and are resistant to proteolytic cleavage. To screen the compound library, a probe that contained a fluorescein tagged oligonucleotide was synthesized. The probe spanned 30 nucleotides on either side of the UAA sequences on GAS5 (FIG. 13) The fluorescein was attached to the 5′end (beginning of oligonucleotide probe sequence). The nucleotide sequence within the GAS5 IncRNA that the oligonucleotide probe binds to can be about 100% identical to […] (SEQ ID NO: 4), which is nucleotides 541 to 651 of SEQ ID NO: 1. The underlined regions indicate the UAA that is the target regions. As such, the oligonucleotide probe was designed to flank both sides of these target regions.
The length of oligonucleotide was required to maintain stem loop structure to specifically bind to GAS5. Further, we modeled the oligonucleotide (RNAfold software) to evaluate its folding and verified absence of any unwanted secondary structures. The backbone was modified by 2′-MOE (2′-O-methoxyethylribose), which protects it from degradation and a fluoroscein tag was attached to the 5′end to aid in screening. The oligonucleotide probe was used to screen 160,000 molecules in the combinatorial library using tRNA as control (as tRNA has similar stem loop secondary structures). […] The compound having a structure according to Formula 3 was determined to have a chemical formula of C68H92N10O9S, a mass of about 1224.6769, and a molecular weight of 1225.6050. The compound having a structure according to Formula 14 was determined to have a chemical formula of C63H85N9O13S, a mass of about 1207.5988, and a molecular weight of 1208.4830. […]

GAS5 [1] = assay: Binding of side-chain derivatives to GAS5 (preliminary data)
HT22 cells [2] = assay: Toxicity of side-chain derivatives to HT22 cells (preliminary data)
HT22 cells [3] = conditions: mouse
GAS5 [4] = assay: GAS5 levels in NDM adipocytes after insulin, real-time qPCR; format: cell-based, human; conditions: about 10 nM, 24 hours
From the text: Depletion of GAS5 decreases glucose uptake: Adipose tissue is the primary target for insulin-mediated glucose uptake. […] To maintain reproducibility over a larger number of experiments, adipose stem cells derived from normal or diabetic patients were purchased from Zenbio (BMI 20-24, Nondiabetic HbA1C 5.9 (hereafter referred as NDM); T2DM HbA1c 8.5 (hereafter referred as DM)). The adipose stem cells (ASC) were differentiated in vitro to mature adipocytes and used in experiments. GAS5 siRNA (10 nM, Ambion 332778, validated; scrambled siRNA as control) was transfected in NDM pre-adipocytes for 48 h, differentiated to mature NDM adipocytes for 8 days and knockdown confirmed by GAS5 SYBR Green qPCR. We determined the effect of GAS5 depletion on glucose uptake by NDM adipocytes. Cells were serum starved, 10 nM insulin was added to cells for 30 minutes and [^3H]-deoxy-2-D-Glucose uptake was measured. Results indicated a decrease in glucose uptake in GAS5 depleted NDM adipocytes ***p<0.001, highly significant using two-tailed students t-test.
About 10 nM insulin was added to NDM adipocytes for 24 hours. […] Separately, GAS5 was depleted in NDM adipocytes using GAS5 siRNA as described above to evaluate the insulin receptor mediated PI3K→AKT pathway. Whole cell lysates were evaluated by western blot analysis using antibodies against p-AKT and total AKT.

insulin receptor (IR) = assay: Insulin receptor levels after intranasal insulin treatment; format: in vivo, mouse
From the text: (§1) Diabetes increases the risk for impaired cognitive function and dementia by 47%. Patients with T2DM have cognitive deficits affecting verbal and nonverbal memory, attention, information processing speed, and executive function. To assess the cognitive function with respect to insulin resistance in vivo, aged diabetic mice BKS.Cg-+ Lepr^db/+ Lepr^db/OlaHsd (Older db/db mice from Harlan were used; 11 months—as this mouse model has lower life span) along with their normal age-matched controls. We measured the levels of GAS5 and insulin receptor (IR) in young (4 months) and db/db mice along with their age-matched control mice. The hippocampi of the mice were collected and SYBR Green qPCR was performed. […] Intranasal insulin delivery is a noninvasive method that bypasses the blood-brain barrier and delivers insulin to the brain and the spinal cord. Biologically effective concentrations of insulin can be achieved without systemic side effects.
(§2) After intranasal administration, insulin and peptide analogues begin to accumulate in the CSF within 30 minutes. Intranasal insulin directly improves learning and memory and has no effect on circulating blood glucose levels. Thus, the effects may reflect activation of neuronal insulin signaling pathways. […] Errors (incorrect arm choices) and escape latency were recorded for each daily trial (FIGS. 3B-3C).

[5] = system: aged normal and aged diabetic (db/db) mice; assay: Radial arm water maze (RAWM) after intranasal insulin in aged normal and db/db mice; format: in vivo, mouse; conditions: 1 unit/ml daily for 3 weeks, both normal aged and aged diabetic mice
From the text: as §1, §2

[6] = after intranasal administration; cited from earlier work
neurons = assay: Immunohistochemistry after insulin treatment; format: in vivo, mouse
Method: FIGS. 4A-4B show panels fluorescent microscopic images of the results from Immuno histochemical analysis post insulin treatment in neron cells. The bar in the images of the panel of FIG. 4B is 20 μm.
After intranasal administration, insulin and peptide analogues begin to accumulate in the CSF within 30 minutes. Intranasal insulin directly improves learning and memory and has no effect on circulating blood glucose levels. Thus, the effects may reflect activation of neuronal insulin signaling pathways. The age-matched control and db/db mice cohorts were treated with intranasal insulin (1 unit/ml, daily for 3 weeks) and the radial arm water maze (RAWM) was used for cognitive assessment. Errors (incorrect arm choices) and escape latency were recorded for each daily trial (FIGS. 3B-3C).

Compound: C[C@H]1CN(C(=O)CC2CC2)CC(=O)N[C@@H](CCC(=O)O)CN(C(=O)CCC2CCCCC2)CC(=O)N[C@@H](Cc2ccccc2)CN(CC(N)=O)C(=O)CCSCc2ccc(cc2)C(=O)N[C@@H](Cc2ccccc2)CN(C(=O)CCC(=O)O)CC(=O)N1 [Formula 14]
- ability to bind GAS5 (identified and validated from library screen) (GAS5 lncRNA): able to bind GAS5

Compound: CC(C)C[C@H]1CN(CC(N)=O)C(=O)CCSCc2ccc(cc2)C(=O)N[C@@H](C)CN(C(=O)CCc2ccccc2)CC(=O)N[C@@H](CC(C)C)CN(C(=O)CC2CC2)CC(=O)N[C@@H](CCCCN)CN(C(=O)CCC2CCCCC2)CC(=O)N1 [YS-D-66]
- binding to GAS5 (GAS5 [1]): bound efficiently to GAS5
- toxicity to HT22 cells (HT22 cells [2]): not toxic to HT22 cells

Compound: CC(C)C[C@H]1CN(C(=O)CCc2ccccc2)CC(=O)N[C@@H](Cc2ccccc2)CN(C(=O)CC2CC2)CC(=O)N[C@@H](Cc2ccccc2)CN(CC(N)=O)C(=O)CCSCc2ccc(cc2)C(=O)N[C@@H](CCCCN)CN(C(=O)CCc2ccccc2)CC(=O)N1 [YS-D-68]
- binding to GAS5 (GAS5 [1]): bound efficiently to GAS5
- toxicity to HT22 cells (HT22 cells [2]): not toxic to HT22 cells

Compound: CC(C)C[C@H]1CN(C(=O)CCc2ccccc2)CC(=O)N[C@@H](Cc2ccccc2)CN(C(=O)CC2CC2)CC(=O)N[C@@H](Cc2ccccc2)CN(CC(N)=O)C(=O)CCSCc2ccc(cc2)C(=O)N[C@@H](Cc2ccccc2)CN(C(=O)CCCN)CC(=O)N1 [YS-D-69]
- binding to GAS5 (GAS5 [1]): bound efficiently to GAS5
- toxicity to HT22 cells (HT22 cells [2]): not toxic to HT22 cells

Compound: NCCCC[C@H]1CN(C(=O)CCCN)CC(=O)N[C@@H](CCC(=O)O)CN(CC(N)=O)C(=O)CCSCc2ccc(cc2)C(=O)N[C@@H](CCCCN)CN(C(=O)CCC(=O)O)CC(=O)N[C@@H](Cc2ccccc2)CN(C(=O)CCc2ccccc2)CC(=O)N1 [YS-D-70]
- binding to GAS5 (GAS5 [1]): bound efficiently to GAS5
- toxicity to HT22 cells (HT22 cells [3]): not toxic to HT22 cells

Compound: insulin
- GAS5 levels in NDM adipocytes (GAS5 [4]): increase in GAS5 levels
- levels of IR (insulin receptor (IR)): did not increase
- cognitive performance in RAWM (errors, escape latency) [5]: improved the cognitive performance
- time to begin to accumulate in the CSF [6]: ≤ 30 min
- neurogenesis (neurons): increased
- neuronal proliferation (neurons): increased

From patent publication US11214835B1, “Methods and compositions for diagnosis and management of neurodegerative diseases” (UNIVERSITY OF SOUTH FLORIDA, priority 2017, dated 2022)
